According to PubChem BioAssay (NCI):
Several values for one entry are separate records, joined by “and”; a condition that tells them apart may be missing. Equal values may be shown once.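 Where inhibition never reached the appropriate level, the endpoint shown equals the highest concentration tested. Otherwise, values were interpolated linearly from a five-concentration, 48-hour dose response in 96-well plates. GI50: concentration for 50% inhibition of growth. TGI: total growth inhibition.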

Experiments:
Experiment in all cases: NCI tumour cell line growth inhibition, 48 h
OVCAR-3 ovarian = tested on: OVCAR-3 ovarian
786-0 renal = tested on: 786-0 renal
SK-MEL-28 melanoma = tested on: SK-MEL-28 melanoma
IGROV1 ovarian = tested on: IGROV1 ovarian
HCC-2998 colon = tested on: HCC-2998 colon
HOP-62 NSCLC = tested on: HOP-62 NSCLC
T-47D breast = tested on: T-47D breast
SNB-19 CNS = tested on: SNB-19 CNS

## Clc1ccc(Nc2nnc(COc3ccccc3)c3ccccc23)cc1
OVCAR-3 ovarian
  GI50: 2.87 µM
  TGI: 9.8 µM
786-0 renal
  GI50: 2.6 µM
  TGI: 8.11 µM
SK-MEL-28 melanoma
  GI50: 2.84 µM
  TGI: 7.23 µM
IGROV1 ovarian
  GI50: 1.14 µM
  TGI: 6.37 µM
HCC-2998 colon
  GI50: 3.81 µM
  TGI: 8.36 µM
HOP-62 NSCLC
  GI50: 2.51 µM
  TGI: 7.74 µM
T-47D breast
  GI50: 0.881 µM
  TGI: 8.44 µM
SNB-19 CNS
  GI50: 3.2 µM
  TGI: 12 µM

## CN1CCN(CCCn2c3c(sc4ncccc43)c(=O)n3nnc(-c4ccccc4)c23)CC1
OVCAR-3 ovarian
  GI50: 1.81 µM
  TGI: 3.42 µM
786-0 renal
  GI50: 5.81 µM
  TGI: 10.7 µM
SK-MEL-28 melanoma
  GI50: 18 µM
  TGI: 32.2 µM
IGROV1 ovarian
  GI50: 1.69 µM
  TGI: 4.22 µM
HCC-2998 colon
  GI50: 5.12 µM
  TGI: 9.97 µM
HOP-62 NSCLC
  GI50: 1.63 µM
  TGI: 3.4 µM
T-47D breast
  GI50: 20.2 µM
  TGI: 39.4 µM
SNB-19 CNS
  GI50: 2.48 µM
  TGI: 5.82 µM

## CCN1C(=O)N(CC)C2C1NN=c1s/c(=C\c3ccc(Br)cc3)c(=O)n12 (configuration not stated)
OVCAR-3 ovarian
  GI50: 0.102 µM
  TGI: > 100 µM
786-0 renal
  GI50: 0.163 µM
  TGI: > 100 µM
SK-MEL-28 melanoma
  GI50: > 53.8 µM
  TGI: > 100 µM
IGROV1 ovarian
  GI50: 0.275 µM
  TGI: > 82.2 µM
HCC-2998 colon
  GI50: 0.349 µM
  TGI: > 100 µM
HOP-62 NSCLC
  GI50: 0.305 µM
  TGI: > 100 µM
T-47D breast
  GI50: 5.11 µM
  TGI: > 100 µM
SNB-19 CNS
  GI50: 0.346 µM
  TGI: > 100 µM

## COc1cc(OC)c(OC)cc1/C=C/c1ccc2ccccc2n1
OVCAR-3 ovarian
  TGI: > 10 µM
786-0 renal
  TGI: > 10 µM
SK-MEL-28 melanoma
  TGI: > 10 µM
IGROV1 ovarian
  TGI: > 10 µM
HCC-2998 colon
  TGI: > 10 µM
HOP-62 NSCLC
  TGI: > 10 µM
T-47D breast
  TGI: > 10 µM

## NC(=O)C1CCCN1Cc1ccc2c(c1)OCO2 (configuration not stated)
OVCAR-3 ovarian
  TGI: > 100 µM
786-0 renal
  TGI: > 100 µM
SK-MEL-28 melanoma
  TGI: > 100 µM
IGROV1 ovarian
  TGI: > 100 µM
HOP-62 NSCLC
  TGI: > 100 µM
T-47D breast
  TGI: > 100 µM
SNB-19 CNS
  TGI: > 100 µM

## COc1ccc(COc2ccc(Cc3cnc(N)nc3N)cc2OC)cc1
OVCAR-3 ovarian
  GI50: > 19.4 µM
  TGI: > 25 µM
786-0 renal
  GI50: > 25 µM
  TGI: > 25 µM
SK-MEL-28 melanoma
  GI50: 24.8 µM
  TGI: > 25 µM
IGROV1 ovarian
  GI50: > 25 µM
  TGI: > 25 µM
HCC-2998 colon
  GI50: > 25 µM
  TGI: > 25 µM
HOP-62 NSCLC
  GI50: > 18.4 µM
  TGI: > 25 µM
T-47D breast
  GI50: 7.08 µM
  TGI: > 25 µM
SNB-19 CNS
  GI50: > 25 µM
  TGI: > 25 µM

## CC1(/C=C/c2ccc(-c3ccccc3)cc2)CCn2cnc3ncnc(c32)N1O (configuration not stated)
OVCAR-3 ovarian
  GI50: 0.425 µM
  TGI: 20.7 µM
786-0 renal
  GI50: 0.259 µM
  TGI: 4.49 µM
SK-MEL-28 melanoma
  GI50: 0.656 µM
  TGI: 20 µM
IGROV1 ovarian
  GI50: 0.337 µM
  TGI: 14.1 µM
HCC-2998 colon
  GI50: 0.409 µM
  TGI: 34.6 µM
HOP-62 NSCLC
  GI50: 0.366 µM
  TGI: 16.4 µM
T-47D breast
  GI50: 0.462 µM
  TGI: 54.3 µM
SNB-19 CNS
  GI50: 0.526 µM
  TGI: > 72.6 µM

## CCN(Cc1c(F)cccc1C(F)(F)F)c1ccc(CO)c(Cl)c1
OVCAR-3 ovarian
  GI50: 0.261 µM
  TGI: 4.9 µM
786-0 renal
  GI50: 15.9 µM
  TGI: 30.9 µM
SK-MEL-28 melanoma
  GI50: 13.9 µM
  TGI: 27.6 µM
IGROV1 ovarian
  GI50: < 0.0338 µM
HCC-2998 colon
  GI50: 16.7 µM
  TGI: 33 µM
HOP-62 NSCLC
  GI50: 13.7 µM
  TGI: 26.6 µM
T-47D breast
  GI50: < 0.0249 µM
  TGI: 0.285 µM
SNB-19 CNS
  GI50: 14.9 µM
  TGI: 29.1 µM

## CC(=O)OCc1cc[c]([Hg][Cl])o1
OVCAR-3 ovarian
  GI50: 3.97 µM
  TGI: 16.2 µM
786-0 renal
  GI50: 3.88 µM
  TGI: 13.2 µM
SK-MEL-28 melanoma
  GI50: 2.73 µM
  TGI: 7.84 µM
IGROV1 ovarian
  GI50: 3.14 µM
  TGI: 10.4 µM
HCC-2998 colon
  GI50: 15.4 µM
  TGI: 29.2 µM
HOP-62 NSCLC
  GI50: 13.8 µM
  TGI: 28.6 µM
T-47D breast
  GI50: 1.36 µM
  TGI: 3.98 µM
SNB-19 CNS
  GI50: 3.08 µM
  TGI: 12 µM

## Cn1cc(-c2[nH]c3cc(NC(=O)[C@H](N)C4CCCCC4)cc4c3c2C=NNC4=O)cn1
OVCAR-3 ovarian
  GI50: 0.229 µM and 0.144 µM
  TGI: 3.02 µM and 3.73 µM
786-0 renal
  GI50: 0.256 µM and 0.315 µM
SK-MEL-28 melanoma
  GI50: 7.99 µM
  TGI: 21.9 µM and > 10 µM
IGROV1 ovarian
  GI50: 0.603 µM and 0.367 µM
  TGI: 14.3 µM and > 10 µM
HCC-2998 colon
  GI50: 0.472 µM and 0.287 µM
  TGI: 19.9 µM and > 10 µM
HOP-62 NSCLC
  GI50: 0.401 µM and 0.343 µM
  TGI: 12.3 µM and > 10 µM
T-47D breast
  GI50: 15 µM
  TGI: 31.3 µM
SNB-19 CNS
  GI50: 0.65 µM and 0.47 µM
  TGI: 19.7 µM and > 10 µM

## c1ccc2cc(Cn3c(-c4cccc5ccccc45)[n+](Cc4ccc5ccccc5c4)c4c5ccccc5c5ccccc5c43)ccc2c1
786-0 renal
  GI50: 0.308 µM
  TGI: 1.7 µM
HCC-2998 colon
  GI50: 0.328 µM
  TGI: 1.59 µM
HOP-62 NSCLC
  GI50: 0.387 µM
  TGI: 2.45 µM
T-47D breast
  GI50: 0.269 µM
  TGI: 1.7 µM
SNB-19 CNS
  GI50: 0.318 µM
  TGI: 1.62 µM

## S=C1NC(c2ccccc2)NC(c2ccccc2)S1 (configuration not stated)
OVCAR-3 ovarian
  TGI: > 100 µM
786-0 renal
  TGI: > 100 µM
SK-MEL-28 melanoma
  TGI: > 100 µM
IGROV1 ovarian
  TGI: > 100 µM
HOP-62 NSCLC
  TGI: > 100 µM
T-47D breast
  TGI: > 100 µM
SNB-19 CNS
  TGI: > 100 µM
